Experimental data as given in US7960133B2, “Methods of diagnosing leiomyoma by measuring catechol-O-methyltransferase” (The Board of Regents of the University of Texas System, priority 2003, dated 2011).

Columns and labels:
Type in all cases: cell-based, rat
ELT3 cells = assay: ELT3 cell proliferation assay (Hoechst 33258 DNA quantitation); settings: for reduction in cell proliferation compared to the untreated control / cell proliferation increase from the control: estrogen-free
Protocol: The Eker rat tumor-derived ELT-3 uterine leiomyoma cells were grown in DMEM medium supplemented with 10% fetal bovine serum and 1% antibiotics (containing 100 U/ml penicillin and 100 μg/ml streptomycin. The cells were maintained in the 100 mm tissue culture dishes at 37° C. air with 5% CO2 and 95% humidity. When experiments required the addition of exogenous compounds, cells were weaned by culturing for 48 h in phenol red-free medium containing 10% Charcoal-stripped fetal calf serum. For proliferation assays, cells were plated onto 24-well plates in DMEM at a density of 4000 cells/well. The cells allowed to attach overnight and then treated with E2 (10^−6 to 10^−10 M) without COMT-inhibitor or with 10 μM of COMT-inhibitor, 2-OHE2 (10^−5 to 10^−10 M) without COMT-I, or with 10 μM COMT-I, 2-OHE2, or 2-MeOHE2 (10^−5 to 10^−10 M). Control cells were treated with medium containing 10 μl of absolute ethanol. After 48 hours, the cells were harvested for the proliferation assay. For western blot analysis, the cells were seeded in 100 mm plates at final density of 2×10^6 cells/plate. […] Cells were harvested 48 hours after treatment and cell lysates were used for western blotting. A fluorometric assay, implementing Hoechst 33258 (bisbenzimide), was used for DNA quantitation. ELT3 cells (5×10^3 cells/well) were plated (described above). The cells were allowed to attach overnight at 37° C., and then the media were replaced with media containing the appropriate treatment. Control cells were treated with a 1:1000 dilution of absolute ethanol. The cells were incubated with the treatments for 48 hours, followed by cell lysis and DNA content determination using Hoechst dye solution (10 μl/100 ml distilled H2O). Fluorescence was measured (DyNA Quant 200; Hoefer Pharmacia Biotech) after excitation at 365 nm and fluorescence at 458 nm. Calf thymus DNA was used as a standard to determine DNA concentration.

Bcl2 = assay: Western blot of Bcl2 protein expression in ELT3 cells; settings: 48 h, maximal inhibition at 10 μM
Protocol: (§1) The Eker rat tumor-derived ELT-3 uterine leiomyoma cells were grown in DMEM medium supplemented with 10% fetal bovine serum and 1% antibiotics (containing 100 U/ml penicillin and 100 μg/ml streptomycin. The cells were maintained in the 100 mm tissue culture dishes at 37° C. air with 5% CO2 and 95% humidity. When experiments required the addition of exogenous compounds, cells were weaned by culturing for 48 h in phenol red-free medium containing 10% Charcoal-stripped fetal calf serum. For proliferation assays, cells were plated onto 24-well plates in DMEM at a density of 4000 cells/well. The cells allowed to attach overnight and then treated with E2 (10^−6 to 10^−10 M) without COMT-inhibitor or with 10 μM of COMT-inhibitor, 2-OHE2 (10^−5 to 10^−10 M) without COMT-I, or with 10 μM COMT-I, 2-OHE2, or 2-MeOHE2 (10^−5 to 10^−10 M). Control cells were treated with medium containing 10 μl of absolute ethanol. […]
(§2) Immunoreactive proteins corresponding to VEGF, Cyclin D, Bcl-2, Bax, and β-actin were identified from total protein by western immunoblotting using specific monoclonal antibodies. […] After a 10-min spin at 10,000×g, the supernatant containing the total cell lysates were quantified using BCA Protein Assay Reagent (Pierce, Rockford, Ill.). […] The expression level of target proteins was quantitated densitometrically and normalized using β-actin expression.

cyclin D1 = assay: Western blot of cyclin D1 protein expression in ELT3 cells; settings: 48 h, maximal inhibition at 10 μM
Protocol: as §1, §2

VEGF = assay: Western blot of VEGF protein expression in ELT3 cells; settings: 48 h, maximal inhibition at 10 μM
Protocol: as §1, §2

Bax = assay: Western blot of Bax protein expression in ELT3 cells; settings: 48 h
Protocol: as §1, §2

[1] = system: estrogen response elements-luciferase reporter (AdERE-Luc) in ELT3 cells; assay: AdERE-Luc reporter luciferase activity in ELT3 cells; settings: for luciferase activity reduction compared to E2 (10^−8 M) alone: plus E2 10^−8 M
Excerpt: Transfection of ELT3 cells with recombinant ERE-Luciferase adenovirus vector was achieved by maintaining ELT 3 cells as described above. For infection with estrogen response elements-luciferase reporter adenoviral vector (Ad ERE-Luc), the cells were allowed to grow to 60-70% confluence and then infected with Ad ERE-Luc vector at multiplicity of infection (MOI) of 100 plaque-forming units (PFU)/cell for two hours in infection medium containing 2% FCS and 1% penicillin/streptomycin. Then, the infection media were removed and replaced with regular media. The transduction efficiency of the adenoviral vectors in ELT3 cells was tested using Ad LacZ vector. β-Galactosidase expression was detected in 95-100% of ELT3 cells at 48 h after infection with Ad LacZ at a 100 PFU. Therefore, subsequent experiments were performed using similar amounts (100 PFU/cell) of recombinant Ad ERE-Luc vector.
ELT3 cells transfected with AdERE-Luc were treated with E2 and with or without COMT-I or with different concentrations of 2-OHE2 (10^−10 to 10^−6 M) with or with out COMT-I (10 μM). After 48 h incubation with chemicals, cells were harvested with 100 μl of cell lysis buffer (Promega). Luciferase activity was determined using Luciferase Assay Kit (Promega) according to the manufacturer's instructions.

[2] = COMT inhibitor 10^−5 M co-treatment, P<0.05

COc1cc2c(cc1O)CC[C@@H]1[C@@H]2CC[C@]2(C)[C@@H](O)CC[C@@H]12 [2-MeOHE2, 2-Methoxyestradiol]
cell proliferation reduction compared to the corresponding control (ELT3 cells; 2-MeOHE2 5×10^−7 M): 30% | cell proliferation increase from the untreated control (ELT3 cells; 2-MeOHE2 5×10^−8 M): 31% | cell proliferation reduction compared to the corresponding control (ELT3 cells; 2-MeOHE2 10^−5 M): 65% | cell proliferation reduction compared to the corresponding control (ELT3 cells; 2-MeOHE2 10^−6 M): 51% | cell proliferation reduction compared to the corresponding control (ELT3 cells; 2-MeOHE2 10^−7 M): 16% | cell proliferation increase from the untreated control (ELT3 cells; 2-MeOHE2 10^−8 M): 24% | cell proliferation increase from the untreated control (ELT3 cells; 2-MeOHE2 10^−9 M): 20% | cell proliferation increase from the untreated control (ELT3 cells; 2-MeOHE2 10^−10 M): 15% | Bcl2 protein expression (Bcl2): concentration-dependent inhibition | cyclin D1 protein expression (cyclin D1): concentration-dependent inhibition | VEGF protein expression (VEGF): concentration-dependent inhibition | Bax protein expression (Bax): gradient increase

C[C@]12CC[C@@H]3c4cc(O)c(O)cc4CC[C@H]3[C@@H]1CC[C@@H]2O [2-OHE2, 2-Hydroxyestradiol]
luciferase activity reduction compared to E2 (10^−8 M) alone ([1]; 2-OHE2 10^−6 M): 39% | luciferase activity reduction compared to E2 (10^−8 M) alone ([1]; 2-OHE2 10^−7 M): 32% | luciferase activity reduction compared to E2 (10^−8 M) alone ([1]; 2-OHE2 10^−8 M): 32% | luciferase activity reduction compared to E2 (10^−8 M) alone ([1]; 2-OHE2 10^−10 to 10^−9 M): 30% | AdERE-Luc activity ([1]; 2-OHE2, E2-free environment, concentration dependent): up-regulated | reduction in cell proliferation compared to the untreated control (ELT3 cells; 2-OHE2 10^−6 M): 21% | reduction in cell proliferation compared to the untreated control (ELT3 cells; 2-OHE2 10^−7 M): 16% | cell proliferation increase (ELT3 cells; 2-OHE2 10^−8 M in the presence of E2 (10^−8 M)): 33% | cell proliferation increase from the control (ELT3 cells; 2-OHE2 10^−8 M): 61% | cell proliferation increase (ELT3 cells; 2-OHE2 10^−9 M in the presence of E2 (10^−8 M)): 24% | cell proliferation increase from the control (ELT3 cells; 2-OHE2 10^−9 M): 54% | cell proliferation increase (ELT3 cells; 2-OHE2 10^−10 M in the presence of E2 (10^−8 M)): 10% | cell proliferation increase from the control (ELT3 cells; 2-OHE2 10^−10 M): 19%

O=C(c1cc(O)c(O)c([N+](=O)[O-])c1)c1ccccc1F [COMT inhibitor, R0 41-0960]
effect on E2-induced AdERE-luciferase at higher E2 concentrations ([1]; COMT inhibitor 10^−5 M, E2 10^-6 and 10^-5 M, P=0.056 and P=0.17): less pronounced | AdERE-luciferase compared to treatment with E2 alone ([1]; COMT inhibitor 10^−5 M, E2 10^-10 to 10^-7 M, P<0.05): significant down regulation | effect on the antiproliferative effect of high dose 2-OHE2 (ELT3 cells; [2]): augmented | effect on the proliferative effect of low dose 2-OHE2 (ELT3 cells; [2]): consistently antagonized | effect on E2-induced cell proliferation (ELT3 cells; COMT inhibitor 10^−5 M with E2 10^−10 to 10^−6 M, P<0.05 at all estrogen concentrations): consistently inhibited

C[C@]12CC[C@@H]3c4ccc(O)cc4CC[C@H]3[C@@H]1CC[C@@H]2O [E2, β-Estradiol]
maximum up-regulation of AdERE-Luciferase ([1]; E2 10^−8 M): 6 fold | concentration of maximum effect on ELT3 proliferation (ELT3 cells; E2 alone, 48 h): 10^−8 M
